# Results as given in article PMC9095466 (Nature, 2022).
# Where “and” joins values, the source holds several entries; their conditions need not be identical. Equal entries are not always repeated. Where two headings read alike, the source gives them in different places.
# How the values were obtained:
# [1] = Cytotoxicity assay (Cell Titer-Glo 2.0) in Vero E6 cells; type: cell-based; conditions: African green monkey
# Experimental: Calu-3 and Vero E6 cells (2500 or 10,000 cells for samples, 80–20,000 cells for standard curve) were seeded in 96-well plates. Following a 24-h incubation at 37 °C, 5% CO2, cells were washed with D-PBS and compounds added (10 µM) for an additional 24-h incubation. Cellular viability was assessed using Cell Titer-Glo 2.0 Cell Viability Assay (Promega) according to the manufacturer’s instructions. The number of viable cells was extrapolated using the standard curve. Cellular viability in Vero E6 cells was expressed relative (%) to vehicle-treated cells. Data are from four independent experiments (mean ± s.d.).
# [2] = system: SARS-CoV-2 B.1.617.2 (Delta); assay: K18-hACE2 mice infected with Delta VOC, IHC of nucleocapsid in lung; type: in vivo
# Experimental: (§1) To detect viral antigen, sections were labelled with anti-SARS-CoV-2 nucleocapsid protein rabbit IgG monoclonal antibody (GeneTex; GTX635679) at a 1:5,000 dilution and processed using a Leica Bond Max automated IHC stainer. Leica Bond Polymer Refine Detection (Leica; DS9800) with DAB was used as the chromogen. Image acquisition was performed using a Roche Ventana DP200 slide scanner. Digital image analysis was performed using QuPath software[65],[66] v.0.2.3. Tissues were annotated to include all available lung tissue or all brain tissue excluding cerebellum, as cerebellar tissue was not available for all mice. Following annotation, automated detection was performed using automated SLIC superpixel segmentation with a DAB mean detection threshold of 0.18892.
# [3] = system: SARS-CoV-2 (USA-WA1/2020, lineage A); parameters: species or system K18-hACE2 mice; conditions: mouse, in vivo
# [4] = system: SARS-CoV-2 B.1.1.7 (Alpha); assay: microbe, parasite or virus in culture; type: cell-based; conditions: UK
# [5] = system: SARS-CoV-2 B.1.617.2 (Delta); assay: K18-hACE2 mice infected with Delta VOC, lung pathology scores on IHC sections; conditions: individual mice, single dose 12 hpi, 3 DPI
# Experimental: (§2) For histological examination, mouse lungs and brains were collected directly after euthanasia and placed in 10% formalin for more than 72 h, after which tissues were embedded in paraffin. Tissue sections (4 μm) were analysed after staining with H&E and scored blinded by an anatomic pathologist. For lung, scores were applied based on the percentage of each tissue type (alveolus, vessels and so on) affected using the following criteria: (0) normal; (1) less than 10% affected; (2) 10–25% affected; (3) 26–50% affected; and (4) more than 50% affected[64]. Assessment of lung pathology in K18-hACE2 mice infected with the SARS-CoV-2 B.1.617.2 (Delta) VOC after single-dose treatment was performed on IHC sections counterstained with haematoxylin. For brains, histological scoring was assessed for perivascular inflammation using the most severely affected vessel and the following criteria: (0) no perivascular inflammation; (1) incomplete cuff one cell layer thick; (2) complete cuff one cell layer thick; (3) complete cuff two to three cells thick; and (4) complete cuff four or more cells thick. Necrotic cells in the neuroparenchyma were assessed per 0.237 mm^2 field using the most severely affected area and the following criteria: (0) no necrotic cells; (1) rare individual necrotic cells; (2) fewer than 10 necrotic cells; (3) 11 to 25 necrotic cells; (4) 26 to 50 necrotic cells; and (5) greater than 50 cells.
# [6] = system: SARS-CoV-2 VOCs; assay: SARS-CoV-2 VOC infection of Calu-3 cells, summary over all VOCs; type: cell-based; conditions: Severe acute respiratory syndrome coronavirus 2, range over VOCs
# [7] = system: SARS-CoV-2 B.1.617.2 (Delta); type: in vivo, K18-hACE2 mice; conditions: for PFU/g / PFU/mL: lung, plaque assay, N-0385 12h PI, individual mice
# [8] = system: SARS-CoV-2 (USA-WA1/2020, lineage A); type: in vivo, K18-hACE2 mice
# [9] = system: SARS-CoV-2 (VIDO); type: cell-based; parameters: plaque assay titre, Figure 2c: unit not given beside the values; conditions: for reduction of viral titre (plaque assay): supernatant of infected Calu-3 cells, vs DMSO-treated infected control; for plaque assay titre, Figure 2c: replicate columns
# [10] = target: mouse TMPRSS2 (Mus musculus, UniProt Q9JIQ8); assay: cell-based
# mouse TMPRSS2, sequence (Q9JIQ8 whole entry): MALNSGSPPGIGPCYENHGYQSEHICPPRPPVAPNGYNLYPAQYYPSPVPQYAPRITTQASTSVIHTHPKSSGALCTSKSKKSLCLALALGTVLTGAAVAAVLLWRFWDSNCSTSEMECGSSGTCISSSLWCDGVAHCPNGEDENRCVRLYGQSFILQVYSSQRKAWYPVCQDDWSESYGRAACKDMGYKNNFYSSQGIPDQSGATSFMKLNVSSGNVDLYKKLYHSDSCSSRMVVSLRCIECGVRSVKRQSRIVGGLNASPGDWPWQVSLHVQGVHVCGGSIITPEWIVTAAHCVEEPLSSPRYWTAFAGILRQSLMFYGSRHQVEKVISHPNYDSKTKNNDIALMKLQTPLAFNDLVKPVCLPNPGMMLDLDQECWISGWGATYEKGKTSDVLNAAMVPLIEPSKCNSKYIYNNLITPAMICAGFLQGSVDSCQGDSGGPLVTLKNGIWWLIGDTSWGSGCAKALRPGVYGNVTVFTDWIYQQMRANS
# [11] = system: SARS-CoV-2 (USA-WA1/2020, lineage A); assay: K18-hACE2 mouse model of SARS-CoV-2, IHC of nucleocapsid with digital image analysis; type: in vivo, K18-hACE2 mice; conditions: for Num Positive per mm^2 (IHC) / Positive % (IHC): Lung, Figure 5 Panel G, individual animals
# Experimental: as §1
# [12] = system: SARS-CoV-2 (USA-WA1/2020, lineage A); assay: K18-hACE2 mouse model of SARS-CoV-2, H&E histopathology of lung and brain; conditions: 8-day regimen
# Experimental: as §2
# [13] = system: SARS-CoV-2 (VIDO); assay: microbe, parasite or virus in culture; type: cell-based; conditions: colonoids pretreated 3 h with 100 nM, infected 3 days, vs DMSO-treated
# [14] = Figure S8 C, tissue plaque assay, Females, individual animals
# [15] = Figure S8 C, tissue plaque assay, Males, individual animals
# [16] = Males, Figure 5 Panel F, individual animals
# [17] = females, Figure 5 Panel F, individual animals
# [18] = individual mice, 8-day regimen, tissue at death or end-point
# [19] = individual mice, tissue at death or end-point
structure (smiles),measurement,setting,value
"CS(=O)(=O)NC(CCC(N)=O)C(=O)NC(Cc1ccccc1)C(=O)NC(CCCNC(=N)N)C(=O)c1nc2ccccc2s1 (stereo not shown) [Compound N-0385, Ms-QFR-kbt]","viability at 24 h, 10 µM","[1]; 10 μM compound, 24 h, relative to vehicle (DMSO 0.01%), single experiments N1-N4, read-out: % Viability of Vero E6 cells",127%
same,"viability at 24 h, 10 µM",[1]; % Viability of Vero E6 cells,100%
same,"Num Positive events/mm^2 (nucleocapsid IHC, lung)","[2]; individual mice (f = female, m = male), single dose 12 hpi, 3 dpi, Fig. 6f, listed as n385",2181.1 events/mm^2 and 5.047 events/mm^2 and 10.41 events/mm^2 and 9.171 events/mm^2 and 935.88 events/mm^2 and 0.9105 events/mm^2 and 3.523 events/mm^2 and 51.75 events/mm^2 and 3.842 events/mm^2 and 20.48 events/mm^2
same,reduction in IHC viral staining in lung at 3 dpi,"[2]; single dose at 12 hpi, vs saline-treated group",more than 50%
same,average weight loss at 6 dpi,[3],3%
same,survival,[3],100%
same,survival to the end-point (14 dpi),[3],70%
same,weight gain at 6 dpi,[3],1%
same,weight gain at time of death or the study end-point,[3],2%
same,weight loss at the study end-point,[3],3%
same,"infection, dose response Figure 3c (nucleocapsid)",[4]; log [C] (nM) -0.49485,100.507 and 68.1892 and 93.9276 and 91.6566 and 100
same,"infection, dose response Figure 3d (dsRNA)",[4]; log [C] (nM) -0.49485,68.6997 and 68.3556 and 77.9197 and 68.9 and 100
same,"infection, dose response Figure 3c (nucleocapsid)",[4]; log [C] (nM) -1.19382,96.9973 and 100 and 88.1248
same,"infection, dose response Figure 3d (dsRNA)",[4]; log [C] (nM) -1.19382,83.4401 and 68.4372 and 71.2209 and 84.9067 and 100
same,Alveolar cells score,[5]; IHC sections,0 and 1 ((1) <10% affected)
same,Interstitial infiltrates in lung score,[5]; IHC sections,1 ((1) <10% affected) and 2 ((2) 10–25% affected)
same,Perivascular infiltrate in lung score,[5]; IHC sections,1 ((1) <10% affected) and 2 ((2) 10–25% affected) and 0 and 3 ((3) 26–50% affected)
same,Type II pneumocyte hyperplasia score,[5]; IHC sections,0 and 2 ((2) 10–25% affected) and 1 ((1) <10% affected)
same,Total Score (lung pathology),[5]; sum of scores,2 and 6 and 3 and 1 and 7
same,EC50,"[6]; read-out: EC50 against all VOCs, dsRNA staining",2.6 to 26.5 nM
same,EC50,"[6]; read-out: EC50 against all VOCs, nucleocapsid staining",2.1 to 13.9 nM
same,PFU/g,[7]; Females,30000000 PFU/g and 0 PFU/g and 275000 PFU/g and 1000 PFU/g
same,PFU/mL,[7]; Females,6000000 PFU/mL and 0 PFU/mL and 55000 PFU/mL and 200 PFU/mL
same,PFU/g,[7]; Males,275000 PFU/g and 32500 PFU/g and 1750 PFU/g and 0 PFU/g
same,PFU/mL,[7]; Males,55000 PFU/mL and 6500 PFU/mL and 350 PFU/mL and 0 PFU/mL
same,reduction in lung viral titres at 3 dpi,"[7]; mouse, in vivo",more than 50%
same,PFU/g,[8]; [14],0 PFU/g
same,PFU/mL,[8]; [14],0 PFU/mL
same,PFU/g,[8]; [15],0 PFU/g and 4852.94 PFU/g and 5882.35 PFU/g and 11764706 PFU/g
same,PFU/mL,[8]; [15],0 PFU/mL and 970.588 PFU/mL and 1176.47 PFU/mL and 2352941 PFU/mL
same,Average Plaques,"[8]; Males, Figure 5 Panel F, at the Dilution Factor, individual animals",53.25 and 0
same,PFU/g,[8]; [16],2662500 PFU/g and 0 PFU/g
same,PFU/mL,[8]; [16],532500 PFU/mL and 0 PFU/mL
same,Average Plaques,"[8]; endpoint plaque assay (Panel H), females, individual animals",0
same,PFU/g,"[8]; endpoint plaque assay (Panel H), females, individual animals, tissue resuspended at 5ul/mg",0 PFU/g
same,Average Plaques,"[8]; endpoint plaque assay (Panel H), males, individual animals",0
same,PFU/g,"[8]; endpoint plaque assay (Panel H), males, individual animals, tissue resuspended at 5ul/mg",0 PFU/g
same,Average Plaques,"[8]; females, Figure 5 Panel F, at the Dilution Factor, individual animals",21 and 0 and 7.75
same,PFU/g,[8]; [17],10500000 PFU/g and 0 PFU/g and 387500 PFU/g
same,PFU/mL,[8]; [17],2100000 PFU/mL and 0 PFU/mL and 77500 PFU/mL
same,infectious virus in the lung at the study end-point,"[8]; intranasal once daily day −1 to day 2, 14 dpi",No infectious virus was detected
same,PFU/mL,"[8]; mouse, in vivo",0 PFU/mL
same,reduction of lung viral titres (plaque assay) at 3 dpi,"[8]; mouse, in vivo",97%
same,reduction of viral titre (plaque assay),[9]; 40 nM,~2 log
same,"plaque assay titre, Figure 2c",[9]; 40 nM,1000 (11×) and 22000 (2×) and 33000 and 132000 and 10000 (2×) and 33333
same,reduction of viral titre (plaque assay),[9]; 200 nM,~2 log
same,"plaque assay titre, Figure 2c",[9]; 200 nM,1000 (8×) and 10000 (6×) and 20000 (2×) and 11111 and 40000 and 30000
same,IC50,"[10]; Vero E6 cells transfected with mTMPRSS2, 24 h, mean ± SD, n = 3, read-out: mouse TMPRSS2 (mTmprss2) activity IC50",12.3 ± 1.9 nM
same,IC50,"[10]; mTMPRSS2, mean of independent experiments, Figure S1C, read-out: IC50 Mean",12.3 nM
same,IC50,"[10]; mTMPRSS2, single experiments N1-N3, Figure S1C, read-out: IC50 determined from independant experiments",12.2 nM and 14.3 nM and 10.4 nM
same,Num Positive per mm^2 (IHC),[11]; Females,5.547 per mm^2 and 9.942 per mm^2 and 13.6 per mm^2 and 13.27 per mm^2 and 7.069 per mm^2
same,Positive % (IHC),[11]; Females,0.0549% and 0.0981% and 0.1335% and 0.1309% and 0.07%
same,Num Positive per mm^2 (IHC),[11]; Males,19.22 per mm^2 and 9.103 per mm^2 and 13.04 per mm^2 and 20.75 per mm^2 and 10.41 per mm^2
same,Positive % (IHC),[11]; Males,0.1899% and 0.0899% and 0.1288% and 0.204% and 0.1028%
same,Brain No. Positive (IHC detections),[11]; [18],113 and 131 and 205 and 255 and 133 and 201 and 429346 and 137295 and 271623 and 125
same,Brain No. Positive per mm^2,[11]; [18],2.79 per mm^2 and 3.006 per mm^2 and 3.517 per mm^2 and 4.198 per mm^2 and 3.156 per mm^2 and 4.077 per mm^2 and 7967.3 per mm^2 and 2771 per mm^2 and 5985.4 per mm^2 and 3.495 per mm^2
same,Brain Positive %,[11]; [18],0.0277% and 0.0298% and 0.035% and 0.0417% and 0.0314% and 0.0404% and 79.52% and 27.59% and 59.16% and 0.0347%
same,Lung No. Positive (IHC detections),[11]; [18],192 and 131 and 152 and 95 and 269 and 3067 and 1648 and 28511 and 272
same,Lung No. Positive per mm^2,[11]; [18],6.545 per mm^2 and 5.06 per mm^2 and 8.682 per mm^2 and 7.096 per mm^2 and 3.624 per mm^2 and 7.345 per mm^2 and 133.68 per mm^2 and 86.7 per mm^2 and 861.5 per mm^2 and 8.911 per mm^2
same,Lung Positive %,[11]; [18],0.065% and 0.0502% and 0.0856% and 0.0701% and 0.0366% and 0.0726% and 1.322% and 0.8535% and 8.502% and 0.088%
same,reduction of IHC staining (nucleocapsid) in lung at 3 dpi,"[11]; intranasal once daily day −1 to day 2, vs saline-treated mice",98%
same,Brain lesions (H&E),"[12]; N-0385: surviving mice, day 14",absent
same,Perivascular infiltrates in CNS score,"[12]; individual mice, most severely affected vessel",0 and 1
same,Alveolar cells score,[12]; [19],2 ((2) 10–25% affected) and 1 ((1) <10% affected) and 0
same,Alveolar edema score,[12]; [19],0
same,Alveolar fibrin score,[12]; [19],0
same,Fibrosis score,[12]; [19],2 ((2) 10–25% affected) and 1 ((1) <10% affected) and 0
same,Interstitial infiltrates in lung score,[12]; [19],2 ((2) 10–25% affected) and 1 ((1) <10% affected) and 0
same,Lymphoid hyperplasia score,[12]; [19],1 ((1) <10% affected) and 0
same,Perivascular infiltrate in lung score,[12]; [19],3 ((3) 26–50% affected) and 1 ((1) <10% affected) and 0
same,Type II pneumocyte hyperplasia score,[12]; [19],2 ((2) 10–25% affected) and 1 ((1) <10% affected) and 0 and 3 ((3) 26–50% affected)
same,inhibition at 0.1 µM,"[13]; Severe acute respiratory syndrome coronavirus 2, read-out: inhibition of SARS-CoV-2 infection in colonoids",> 99%
same,inhibition of SARS-CoV-2 infection in colonoids,[13],complete inhibition
